≈ marks a conversion by molar mass, not a printed value.
How the values were obtained:
[1] = test system: Leishmania braziliensis axenic amastigotes; assay: In vitro antileishmanial activity against axenic amastigotes (MTT); assay type: cell-based
Protocol: To obtain the axenic amastigotes, 1 × 10^9 stationary promastigotes were washed three times in sterile phosphate-buffered saline (PBS) and incubated in 5 mL FBS for 48 h at 37 °C. Parasites were washed with cold PBS, and their morphology was evaluated with an optical microscope after Giemsa staining as previously described.
The in vitro antileishmanial activity was evaluated by incubating the promastigotes or axenic amastigotes (1 × 10^6 cells/well) with the 24 synthetic derivatives (Compounds 5–28; 0 to 600 µg/mL) in 96-well culture plates (Nunc, Nunclon, Roskilde, Denmark) for 48 h at 24 °C. Due to the difficulty in obtaining a high concentration of murine macrophages, the cytotoxicity experiment was evaluated by incubating such cells (5 × 10^5 per mL) with Compound 28 (0 to 600 µg/mL), which presented the best antileishmanial activity, for 48 h at 37 °C in a 5% CO2 environment. AmpB (0 to 10 µg/mL; Sigma-Aldrich, St. Louis, MO, USA) was used as a positive control in both experiments. The cell viability was assessed using the 3-(4.5-dimethylthiazol-2-yl)-2.5-diphenyl tetrazolium bromide (MTT, Sigma-Aldrich, St. Louis, MO, USA) method. The optical density (OD) values were read using a microplate spectrophotometer (Molecular Devices, Spectra Max Plus, San Jose, CA, USA) at 570 nm. Results were entered into Microsoft Excel (version 10.0) spreadsheets, and the 50% Leishmania and macrophage inhibitory concentrations (IC50 and CC50, respectively) were calculated by applying a sigmoidal regression of the dose–response curve. The SI was calculated by dividing the CC50 with the respective IC50 values.

[2] = test system: L. braziliensis-infected macrophages; assay: Treatment of infected macrophages; assay type: cell-based, Leishmania braziliensis; conditions: 48 h at 37 °C; for Number of Amastigotes per Cell after treatment: untreated 10.3; for Percentage of Infected Macrophages after Treatment: untreated 92.8
Protocol: Murine macrophages (5 × 10^5 cells) were plated on round glass coverslips in 24-well plates in RPMI 1640 medium with added 20% FBS and 20 mmol/L L-glutamine at pH 7.4 and incubated for 24 h at 37 °C in 5% CO2. Promastigotes were added to the wells (at a ratio of 10 parasites per macrophage), and cultures were incubated for 48 h at 37 °C in a 5% CO2 environment. Free parasites were removed by extensive washing with RPMI 1640 medium, and the infected macrophages were treated with Compound 28 or AmpB (0, 1.0, 2.5 and 5.0 µg/mL in both cases) for 48 h at 37 °C in 5% CO2.
(§1) To evaluate the inhibition of infection, promastigotes (5 × 10^6 cells) were first incubated with Compound 28 or AmpB (0, 1.0, 2.5 and 5.0 µg/mL in both cases) for 4 h at 24 °C; these were then used to infect murine macrophages (at a ratio of 10 parasites per macrophage) and incubated for 24 h at 37 °C in 5% CO2. Then, cells were fixed with 4% paraformaldehyde, washed, and stained with Giemsa. The percentage of infected macrophages and the number of recovered amastigotes were determined by counting 200 cells, in triplicate, using an optical microscope.

[3] = test system: L. braziliensis promastigotes infecting murine macrophages; assay: Inhibition of infection (parasites pre-incubated with compound, then used to infect macrophages); assay type: cell-based, Leishmania braziliensis; conditions: for Number of Amastigotes per Cell using pre-incubated parasites: untreated 8.9; for Percentage of Infected Macrophages Using Pre-Incubated Parasites: untreated 90.5
Protocol: as §1

[4] = test system: L. braziliensis promastigotes; assay: Membrane permeability evaluation (propidium iodide); assay type: cell-based, Leishmania braziliensis; conditions: one IC50 value, 48 h at 24 °C
Protocol: L. braziliensis promastigotes (1 × 10^7 cells/mL) were incubated with Compound 28 (at a concentration corresponding to one IC50 value) for 48 h at 24 °C. After washing with PBS, parasites (3 × 10^6 cells/well) were incubated with 1.0 µg/mL PI (Sigma-Aldrich, St. Louis, MO, USA) in the dark for 15 min. The samples were analyzed using a fluorometer microplate reader (FLx800, BioTek Instruments, Winooski, VT, USA), with excitation and emission wavelengths of […], respectively. Parasites that were killed by heating to 65 °C for 10 min were used as controls for the membrane permeabilization. Parasites that were untreated or treated with Compound 28 and not labeled with the fluorescent probe were used as the sample blank.
Figure 5 Effect of Compound 28 on parasite membrane permeability. Parasite promastigotes were either left untreated or treated with Compound 28 (at a concentration corresponding to the IC50 value) for 48 h. The PI dye fluorescence was measured fluorometrically at excitation and emission wavelengths of 540 and 600 nm, respectively. Parasites heated at 65 °C for 10 min were used as a positive control. The data is presented as the fold increase in PI fluorescence relative to the untreated control. (***), signifying p < 0.001, indicates a statistically significant difference compared with the non-treated control.

[5] = parasites pre-incubated with 1.0 µg/mL at 24 °C
[6] = parasites pre-incubated with 2.5 µg/mL at 24 °C
[7] = parasites pre-incubated with 5.0 µg/mL at 24 °C

IC50 Axenic Amastigotes ([1]; 48 h at 24 °C, MTT, mean ± standard deviation): 87.8 ± 9.7 µg/mL (≈ 174 µM) | IC50 ([1]; Leishmania braziliensis, 48 h, 48 h at 24 °C, MTT, mean ± standard deviation): 88 ± 9.7 µg/mL (≈ 175 µM)
SMILES: CCN(CC)c1ccc2cc(-n3cc(CNC(=O)/C=C/c4ccc(OC)c(OC)c4)nn3)c(=O)oc2c1 [Compound 28, N-((1-(7-(diethylamino)-2-oxo-2H-chromen-3-yl)-1H-1,2,3-triazol-4-yl)methyl) (3,4-dimethoxy) cinnamide]
Selectivity index (SI), ratio CC50/IC50, axenic amastigotes ([1]; CC50 murine macrophages / IC50 axenic amastigotes): 13.3 | Number of Amastigotes per Cell after treatment ([2]; 1.0 µg/mL): 6.7 | Percentage of Infected Macrophages after Treatment ([2]; 1.0 µg/mL): 79.5% | Number of Amastigotes per Cell after treatment ([2]; 2.5 µg/mL): 4.0 | Percentage of Infected Macrophages after Treatment ([2]; 2.5 µg/mL): 70.3% | Number of Amastigotes per Cell after treatment ([2]; 5.0 µg/mL): 2.9 | Percentage of Infected Macrophages after Treatment ([2]; 5.0 µg/mL): 60.2% | Number of Amastigotes per Cell using pre-incubated parasites [3, 5]: 5.8 | Percentage of Infected Macrophages Using Pre-Incubated Parasites [3, 5]: 84.5% | Number of Amastigotes per Cell using pre-incubated parasites [3, 6]: 4.9 | Percentage of Infected Macrophages Using Pre-Incubated Parasites [3, 6]: 80.5% | Number of Amastigotes per Cell using pre-incubated parasites [3, 7]: 3.6 | Percentage of Infected Macrophages Using Pre-Incubated Parasites [3, 7]: 71.5% | Fold increase in PI-fluorescence compared with untreated parasites [4]: 2.3 fold
